Measurements: US20230104936A1, “TRPML MODULATORS” (Casma Therapeutics, Inc., priority 2019, published 2023)

These molecules were tested on TFEB (assay: TFEB nuclear translocation assay, HeLa wt cells). Details: Homo sapiens, HeLa, 2 h, 2 hrs compound treatment, Table 1 does not say HeLa wt or TRPML1 KO.
Type: cell-based
In short: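 HeLa wt, 2 hr compound, 37° C; 4% PFA fix; anti-TFEB (rabbit, 1:200, overnight 4° C) + Alexa 488 secondary, Hoechst. Imaged ×20, 4 fields/well. Readout: nuclear/ring Alexa 488 intensity ratio; AC50.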

First: COCC1(C)CCN(c2ccccc2NS(=O)(=O)C2CCc3ccccc32)CC1 (stereo not drawn) [Compound A-597, N-{2-[4-(methoxymethyl)-4-methylpiperidin-1-yl]phenyl}-2,3-dihydro-1H-indene-1-sulfonamide]
Second: COCC1(C)CCN(c2ccccc2NS(=O)(=O)Cc2ccccc2Cl)CC1 [Compound A-601, 1-(2-chlorophenyl)-N-{2-[4-(methoxymethyl)-4-methylpiperidin-1-yl]phenyl}methanesulfonamide]
The AC50 of the first is higher: 8010 to 9990 nM for the first, 2010 to 8000 nM for the second.

First: CN(C)S(=O)(=O)c1ccc(S(=O)(=O)Cc2ccccc2N2CCN(C(=O)OCc3ccccc3)CC2)cc1 [Compound A-598, benzyl 4-(2-{[4-(dimethylsulfamoyl)benzenesulfonyl]methyl}phenyl)piperazine-1-carboxylate]
Second: CC(C)CN1CCN(c2ccccc2CS(=O)(=O)c2ccc(S(=O)(=O)N(C)C)cc2)CC1 [Compound A-599, N,N-dimethyl-4-({2-[4-(2-methylpropyl)piperazin-1-yl]phenyl}methanesulfonyl)benzene-1-sulfonamide]
The AC50 of the first is lower: ≤ 2000 nM for the first, 2010 to 8000 nM for the second.

First: Cc1nc2ccc(S(=O)(=O)Nc3ccccc3N3CCN(C(=O)C(C)(C)C)CC3)cc2s1 [Compound A-600, N-{2-[4-(2,2-dimethylpropanoyl)piperazin-1-yl]phenyl}-2-methyl-1,3-benzothiazole-6-sulfonamide]
Second: COCC1(C)CCN(c2ccccc2NS(=O)(=O)c2ccc(C)c(F)c2)CC1 [Compound A-617, 3-fluoro-N-{2-[4-(methoxymethyl)-4-methylpiperidin-1-yl]phenyl}-4-methylbenzene-1-sulfonamide]
The AC50 of the first is higher: ≥ 10000 nM for the first, 2010 to 8000 nM for the second.

`COCC1(C)CCN(c2ccccc2NS(=O)(=O)Cc2cccc(Cl)c2)CC1` [Compound A-602, 1-(3-chlorophenyl)-N-{2-[4-(methoxymethyl)-4-methylpiperidin-1-yl]phenyl}methanesulfonamide] and `COCC1(C)CCN(c2ccccc2NS(=O)(=O)Cc2ccc3c(c2)COC3)CC1` [Compound A-612, 1-(1,3-dihydro-2-benzofuran-5-yl)-N-{2-[4-(methoxymethyl)-4-methylpiperidin-1-yl]phenyl}methanesulfonamide] fall in the same range of AC50: 2010 to 8000 nM for the first, 2010 to 8000 nM for the second.

First: CC(c1ccccc1N1CCN(C2COC2)CC1)S(=O)(=O)c1ccc(S(=O)(=O)N(C)C)cc1 (stereo not drawn) [Compound A-603, N,N-dimethyl-4-(1-{2-[4-(oxetan-3-yl)piperazin-1-yl]phenyl}ethanesulfonyl)benzene-1-sulfonamide]
Second: CC(C)CN1CCN(c2ccccc2C(C)S(=O)(=O)c2ccc(S(=O)(=O)N(C)C)cc2)CC1 (stereo not drawn) [Compound A-604, N,N-dimethyl-4-(1-{2-[4-(2-methylpropyl)piperazin-1-yl]phenyl}ethanesulfonyl)benzene-1-sulfonamide]
The AC50 of the first is higher: 2010 to 8000 nM for the first, ≤ 2000 nM for the second.

Compared with `CN(C)S(=O)(=O)c1ccc(S(=O)(=O)Nc2cc(F)ccc2N2CCC3(CC2)COC(C)(C)C3)cc1` [Compound A-605, N4-(2-{3,3-dimethyl-2-oxa-8-azaspiro[4.5]decan-8-yl}-5-fluorophenyl)-N1,N1-dimethylbenzene-1,4-disulfonamide], `CN(C)S(=O)(=O)c1ccc(S(=O)(=O)Nc2ccc(F)cc2N2CCC3(CC2)COC(C)(C)C3)cc1` [Compound A-606, N4-(2-{3,3-dimethyl-2-oxa-8-azaspiro[4.5]decan-8-yl}-4-fluorophenyl)-N1,N1-dimethylbenzene-1,4-disulfonamide] is higher in AC50: ≤ 2000 nM for the first, 2010 to 8000 nM for the second.

`COCC1(C)CCN(c2ccccc2NS(=O)(=O)Cc2cccc3c2COC3)CC1` [Compound A-607, 1-(1,3-dihydro-2-benzofuran-4-yl)-N-{2-[4-(methoxymethyl)-4-methylpiperidin-1-yl]phenyl}methanesulfonamide] and `COCC1(C)CCN(c2ccccc2NS(=O)(=O)Cc2ccccc2C#N)CC1` [Compound A-610, 1-(2-cyanophenyl)-N-{2-[4-(methoxymethyl)-4-methylpiperidin-1-yl]phenyl}methanesulfonamide] fall in the same range of AC50: 2010 to 8000 nM for the first, 2010 to 8000 nM for the second.

Compared with `COCC1(C)CCN(c2ccccc2NS(=O)(=O)c2ccc3c(c2)CCC3)CC1` [Compound A-608, N-{2-[4-(methoxymethyl)-4-methylpiperidin-1-yl]phenyl}-2,3-dihydro-1H-indene-5-sulfonamide], `COCC1(C)CCN(c2ccccc2NS(=O)(=O)c2ccc(F)c(C)c2)CC1` [Compound A-616, 4-fluoro-N-{2-[4-(methoxymethyl)-4-methylpiperidin-1-yl]phenyl}-3-methylbenzene-1-sulfonamide] is higher in AC50: ≤ 2000 nM for the first, 2010 to 8000 nM for the second.

First: COc1ccc(N2CCOCC2)c(NS(=O)(=O)Cc2ccc3c(c2)COCC3)c1 [Compound A-609, 1-(3,4-dihydro-1H-2-benzopyran-7-yl)-N-[5-methoxy-2-(morpholin-4-yl)phenyl]methanesulfonamide]
Second: COCC1CCN(c2ccccc2NS(=O)(=O)c2ccc3c(c2)CC(C)(C)O3)CC1 [Compound A-614, N-{2-[4-(methoxymethyl)piperidin-1-yl]phenyl}-2,2-dimethyl-2,3-dihydro-1-benzofuran-5-sulfonamide]
The AC50 of the first is higher: 8010 to 9990 nM for the first, ≤ 2000 nM for the second.

`COCCC1CCN(c2ccccc2NS(=O)(=O)c2ccc(S(=O)(=O)N(C)C)cc2)CC1` [Compound A-611, N4-{2-[4-(2-methoxyethyl)piperidin-1-yl]phenyl}-N1,N1-dimethylbenzene-1,4-disulfonamide] and `COCC1(C)CCN(c2ccccc2NS(=O)(=O)c2ccc(C3CC3)cc2)CC1` [Compound A-621, 4-cyclopropyl-N-{2-[4-(methoxymethyl)-4-methylpiperidin-1-yl]phenyl}benzene-1-sulfonamide] cannot be ordered by AC50: ≤ 2000 nM for the first, ≤ 2000 nM for the second.

First: COCC1(C)CCN(c2ccccc2NS(=O)(=O)c2ccc3c(c2)CC(C)(C)O3)CC1 [Compound A-613, N-{2-[4-(methoxymethyl)-4-methylpiperidin-1-yl]phenyl}-2,2-dimethyl-2,3-dihydro-1-benzofuran-5-sulfonamide]
Second: COCC1(C)CCN(c2ccccc2NS(=O)(=O)c2cccc(C)c2)CC1 [Compound A-618, N-{2-[4-(methoxymethyl)-4-methylpiperidin-1-yl]phenyl}-3-methylbenzene-1-sulfonamide]
The AC50 of the first is lower: ≤ 2000 nM for the first, 2010 to 8000 nM for the second.

First: CN(C)S(=O)(=O)c1ccc(S(=O)(=O)Nc2cccc(F)c2N2CCC3(CC2)COC(C)(C)C3)cc1 [Compound A-615]
Second: COCC1(C)CCN(c2ccccc2NS(=O)(=O)c2ccc(Br)cc2)CC1 [Compound A-623, 4-bromo-N-{2-[4-(methoxymethyl)-4-methylpiperidin-1-yl]phenyl}benzene-1-sulfonamide]
The AC50 of the first is lower: ≤ 2000 nM for the first, 2010 to 8000 nM for the second.

Compared with `COCC1(C)CCN(c2ccccc2NS(=O)(=O)c2cc(C3OCCO3)cs2)CC1` [Compound A-619, 4-(1,3-dioxolan-2-yl)-N-{2-[4-(methoxymethyl)-4-methylpiperidin-1-yl]phenyl}thiophene-2-sulfonamide], `COCC1(C)CCN(c2ccccc2NS(=O)(=O)c2ccc(C(F)F)cc2)CC1` [Compound A-620, 4-(difluoromethyl)-N-{2-[4-(methoxymethyl)-4-methylpiperidin-1-yl]phenyl}benzene-1-sulfonamide] is lower in AC50: 2010 to 8000 nM for the first, ≤ 2000 nM for the second.

`COCC1(C)CCN(c2ccccc2NS(=O)(=O)c2ccc(OC(F)(F)F)cc2)CC1` [Compound A-622, N-{2-[4-(methoxymethyl)-4-methylpiperidin-1-yl]phenyl}-4-(trifluoromethoxy)benzene-1-sulfonamide] was tested, and the AC50 was 2010 to 8000 nM.
